Peptide text beside a SMILES is read from it. * marks the point of attachment. Myristoyl = CCCCCCCCCCCCCC(=O)*
Assays:
CD31 = assay: Microvessel density (CD31 staining) in db/db mouse wounds; type: in vivo, db/db mice; conditions: day 12
Source text: CD31 Staining in Mouse Wound Tissue. Formalin-fixed mouse skin samples were processed on ASP300 S automated tissue processor (Leica Biosystems, Buffalo Grove, Ill.) using a standard overnight processing protocol and embedded into paraffin blocks. Tissue was sectioned at 5 μm and stained with rabbit anti-CD31 antibody. Sections were deparaffinized, rehydrated, and stained on BOND″ RX automated stainer (Leica Biosystems, Buffalo Grove, Ill.) using a preset protocol. In brief, sections were subjected to EDTA-based antigen retrieval with BOND™ ER2 solution (Leica Biosystems, Buffalo Grove, Ill.) for 20 minutes at 100° C. Endogenous peroxidase activity and non-specific binding was blocked by treating samples with peroxidase block and protein block with Background Sniper (Biocare Medical, Pacheco, Calif.) for 15 minutes and 30 minutes at room temperature, respectively. Sections were then incubated with the primary antibody diluted at 1:200 for 30 minutes at room temperature. BOND™ Polymer Refine Detection kit (Leica Biosystems, Buffalo Grove, Ill.) was used for detection. […]
(§1) Two 8 mm full thickness excisional wounds were made on the dorsal skin of diabetic db/db mice and then 50 μl of 50 μM Myr-CBD7 peptide was topically applied. […] Reduced CCR10-eNOS interaction was also observed in the mouse wounds following treatment with Myr-CBD7 peptide as determined by Co-IP (FIG. 6).

[1] = tested on: full thickness excisional wounds on db/db mouse dorsal skin; assay: Excisional dorsal skin wound healing in diabetic db/db mice; type: in vivo
Experimental: Mouse Healing Models. All animal procedures were performed in accordance with the Guide for the Care and Use of Laboratory Animals (National Institutes of Health). WT C57BL/6, eNOS^−/− and db/db mice were purchased from Jackson Laboratory (Bar Harbor, Me.). CCR10^−/− mice have been described in the art, see, e.g., Jin, et al. (2011) J. Immunol. 185(10):5723-31. Four 5-mm or two 8-mm full thickness excisional wounds were made on the dorsal skin of mice (male, aged at 9 weeks) using a standard skin biopsy punch under ketamine (100 mg/kg) and xylazine (5 mg/kg) anesthesia. Scrambled myristoylated (Myr−) control or Myr-CBD7 peptides were applied topically to wounds in F-127 gel sold under the tradename PLURONIC® after wounding (Mirza, et al. (2009) Am. J. Pathol. 175:2454-2462). Wound size was determined as previously described (Chen, et al. (2020) FASEB J. 34(4):5838-5850; Zhao, et al. (2016) PLoS ONE. 11:e0146451) and wounds were collected at indicated times for indicated measurements.
as §1

CCR10-eNOS interaction = molecular target: T1, CCR10-eNOS interaction (Homo sapiens, UniProt P46092); assay: Co-IP of CCR10-eNOS interaction in HUVECs stimulated with A23187; type: cell-based; conditions: endothelial cells (HUVECs), pretreatment 50 μM, 5 μM A23187 for 5 minutes, vs control peptide
T1 construct: host or cells: HUVEC (primary human umbilical vein endothelial cells)
T1 sequence (P46092 1-362): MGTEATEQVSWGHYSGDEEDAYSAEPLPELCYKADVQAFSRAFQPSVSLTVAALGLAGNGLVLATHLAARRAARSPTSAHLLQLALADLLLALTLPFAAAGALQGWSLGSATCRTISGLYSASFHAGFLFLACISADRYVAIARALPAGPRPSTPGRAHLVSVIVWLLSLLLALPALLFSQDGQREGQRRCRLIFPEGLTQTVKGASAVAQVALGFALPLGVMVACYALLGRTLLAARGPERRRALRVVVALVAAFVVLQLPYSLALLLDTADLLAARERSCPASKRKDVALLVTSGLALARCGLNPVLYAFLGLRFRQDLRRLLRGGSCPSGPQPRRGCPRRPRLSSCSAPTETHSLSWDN
Experimental: Immunoblot and Co-Immunoprecipitation (Co-IP). After serum starvation, inhibitors were added 45 minutes prior to stimulation for indicated times at 37° C., and cells were then collected and lysed for western blot analysis. After probing for p-eNOS (Ser1177), p-p85 (Tyr458), p-Src (Tyr 416), and p-ERK (T202/Y204), the same blots were stripped and re-probed for total proteins mentioned above. For detection of CCL28-induced protein levels of β-catenin and Bcl-2, near-confluent endothelial cells were incubated with 500 ng/ml CCL28 for 24 hours in EGM-2 medium containing 1% FBS.
Co-IP Experiments, cells or mouse wounds were collected after treatment, and lysed in 2% ODG in Tris buffer. The homogenates were further prepared for Co-IP experiments as described in the art (Chen, et al. (2018) Mol. Biol. Cell 29(10):1190-1202; Chen, et al. (2020) FASEB J. 34(4):5838-5850; Chen, et al. (2015) Ann. Rheum. Dis. 74:1898-1906).
Therefore, the effect of inhibition of CCR10-eNOS interaction was investigated using a panel of cell-permeable peptides based on the sequence of the predicted interaction domain on eNOS. Similar peptides have been described in determining the solution structure of calmodulin bound to the target peptide of eNOS (Piazza, et al. (2014) Biochemistry 53(8):1241-9; Piazza, et al. (2016) Biochemistry 55(42):5962-71). First, myristoylated 20 amino acid peptide (491-[…]-510 (P1); SEQ ID NO:61) was synthesized based on the sequence of human eNOS (which is conserved in mouse eNOS). […] It was subsequently determined whether truncated versions of the CBD-derived peptide would have the same effect.

- CCR10-eNOS interaction (Co-IP) (CCR10-eNOS interaction): significant reduction
- CCR10-eNOS interaction (Co-IP) (CCR10-eNOS interaction; listed as P4): completely blocked
SMILES: CCCCCCCCCCCCCC(=O)N[C@@H](CCCCN)C(=O)N[C@H](C(=O)N[C@@H](CO)C(=O)N[C@@H](C)C(=O)N[C@@H](CO)C(=O)N[C@@H](CC(C)C)C(=O)N[C@@H](CCSC)C(=O)O)[C@@H](C)CC [Myr-CBD7, myr-KISASLM] (Myristoyl-KISASLM-OH)
- microvessel density (CD31 staining) (CD31): enhanced
- decrease of wound healing time ([1]; 50 μl of 50 μM topical, vs control peptide): 4 days
- reduction of wound size ([1]; day 4, compared to control peptide): 19%
- reduction of wound size ([1]; day 12, compared to control peptide): 46%
- wound size (FIG. 5) ([1]; from day 4, 30 μl (50 μM) topical, compared with control construct): reduces wound size significantly

Reference: US20220265759A1, “COMPOSITION AND METHOD FOR PROMOTING WOUND HEALING” (THE BOARD OF TRUSTEES OF THE UNIVERSITY OF ILLIOIS, priority 2019, published 2022)
